Laboratory results from patent US20200187499A1, “SUBSTITUTED BENZYL-4-AMINOPICOLINIC ESTERS AND PYRIMIDINO-4-CARBOXYLIC ESTERS, METHODS FOR THE PRODUCTION THEREOF, AND USE THEREOF AS HERBICIDES AND PLANT GROWTH REGULATORS” (Bayer CropScience Aktiengesellschaft, priority 2017, published 2020).

Key:
Assay type in all cases: in vivo
[1] = system: AMARE; assay: Post-emergence herbicidal action; conditions: 320 g/ha, assessed after about 3 weeks
Procedure: (§1) Seeds of monocotyledonous and dicotyledonous weed and crop plants are laid out in sandy loam soil in wood-fiber pots, covered with soil and cultivated in a greenhouse under good growth conditions. 2 to 3 weeks after sowing, the test plants are treated at the one-leaf stage. The compounds of the invention, formulated in the form of wettable powders (WP) or as emulsion concentrates (EC), are then sprayed onto the green parts of the plants in the form of an aqueous suspension or emulsion at a water application rate equating to 600 to 800 l/ha, with addition of 0.2% wetting agent. After the test plants have been left to stand in the greenhouse under optimal growth conditions for about 3 weeks, the action of the preparations is assessed visually in comparison to untreated controls (herbicidal action in percent (%): 100% activity=the plants have died, 0% activity=like control plants). […] At the same time, inventive compounds leave Gramineae crops such as barley, wheat, rye, millet/sorghum, corn or rice virtually undamaged when applied post-emergence, even at high active ingredient dosages. In addition, some substances are also harmless to dicotyledonous crops such as soya, cotton, oilseed rape, sugar beet or potatoes. Some of the compounds according to the invention have high selectivity and are therefore suitable for controlling unwanted vegetation in agricultural crops by the post-emergence method. The tables below illustrate, in an exemplary manner, the post-emergence herbicidal action of the compounds according to the invention, the herbicidal activity being stated in percent.

[2] = system: STEME; assay: Post-emergence herbicidal action; conditions: 320 g/ha, assessed after about 3 weeks
Procedure: as §1

[3] = system: ABUTH; assay: Post-emergence herbicidal action; conditions: 320 g/ha, assessed after about 3 weeks
Procedure: as §1

[4] = system: SETVI; assay: Post-emergence herbicidal action; conditions: 320 g/ha, assessed after about 3 weeks
Procedure: as §1

[5] = system: ALOMY; assay: Pre-emergence herbicidal action; conditions: Table 3, pre-emergence (PE), 320 g/ha, scored after 3 weeks
Excerpt: (§2) Seeds of monocotyledonous and dicotyledonous weed plants and crop plants are laid out in sandy loam soil in wood-fiber pots and covered with soil. The compounds of the invention, formulated in the form of wettable powders (WP) or as emulsion concentrates (EC), are then applied to the surface of the covering soil in the form of an aqueous suspension or emulsion at a water application rate equating to 600 to 800 I/ha, with addition of 0.2% wetting agent. After the treatment, the pots are placed in a greenhouse and kept under good growth conditions for the trial plants. The damage to the test plants is scored visually after a test period of 3 weeks by comparison with untreated controls (herbicidal activity in percent (%): 100% activity=the plants have died, 0% activity=like control plants).
(§3) At the same time, inventive compounds leave Gramineae crops such as barley, wheat, rye, millet/sorghum, corn or rice virtually undamaged when applied pre-emergence, even at high active ingredient dosages. In addition, some substances are also harmless to dicotyledonous crops such as soya, cotton, oilseed rape, sugar beet or potatoes. […] The tables below illustrate, in an exemplary manner, the pre-emergence herbicidal action of the compounds according to the invention, the herbicidal activity being stated in percent.

[6] = system: AMARE; assay: Pre-emergence herbicidal action; conditions: 320 g/ha, scored after 3 weeks
Excerpt: as §2, §3

[7] = system: ECHCG; assay: Pre-emergence herbicidal action; conditions: 320 g/ha, scored after 3 weeks
Excerpt: as §2, §3

[8] = system: ABUTH; assay: Pre-emergence herbicidal action; conditions: Table 3, pre-emergence (PE), 320 g/ha, scored after 3 weeks
Excerpt: as §2, §3

[9] = system: SETVI; assay: Pre-emergence herbicidal action; conditions: Table 3, pre-emergence (PE), 320 g/ha, scored after 3 weeks
Excerpt: as §2, §3

[10] = system: ECHCG; assay: Post-emergence herbicidal action; conditions: 320 g/ha, assessed after about 3 weeks
Procedure: as §1

[11] = system: PHBPU; assay: Post-emergence herbicidal action; conditions: Table 5, post-emergence (PO), 320 g/ha, assessed after about 3 weeks
Procedure: as §1

[12] = system: VIOTR; assay: Post-emergence herbicidal action; conditions: Table 5, post-emergence (PO), 320 g/ha, assessed after about 3 weeks
Procedure: as §1

[13] = system: POLCO; assay: Post-emergence herbicidal action; conditions: Table 5, post-emergence (PO), 320 g/ha, assessed after about 3 weeks
Procedure: as §1

Row | SMILES | Herbicidal action against AMARE ([1]; Table 6, post-emergence (PO)) [%] | Herbicidal action against STEME ([2]; Table 6, post-emergence (PO)) [%] | Herbicidal action against ABUTH ([3]; Table 6, post-emergence (PO)) [%] | Herbicidal action against SETVI ([4]; Table 6, post-emergence (PO)) [%] | Herbicidal action against ALOMY [5] [%] | Herbicidal action against AMARE ([6]; Table 3, pre-emergence (PE)) [%] | Herbicidal action against ECHCG ([7]; Table 3, pre-emergence (PE)) [%] | Herbicidal action against ABUTH [8] [%] | Herbicidal action against SETVI [9] [%] | Herbicidal action against AMARE ([6]; Table 4, pre-emergence (PE)) [%] | Herbicidal action against ECHCG ([7]; Table 4, pre-emergence (PE)) [%] | also measured
1 | Nc1c(F)c(-c2ccc3ccoc3c2)nc(C(=O)OCc2ccc(Cl)cc2)c1Cl [Example I-15] | 100 | 80 | 100 | 80 | 0 | 100 | 30 | 90 | 0 |  |  | 
2 | Nc1cc(-c2ccc3ccoc3c2)nc(C(=O)OCc2ccc(Cl)cc2)c1Cl [Example I-30] | 100 | 100 | 90 | 90 | 40 | 100 | 100 | 20 | 90 |  |  | 
3 | COc1ccc(COC(=O)c2nc(-c3ccc4ccoc4c3)c(F)c(N)c2Cl)c(OC)c1 [Example I-35] |  |  |  |  |  |  |  |  |  | 100 | 40 | Herbicidal action against AMARE ([1]; Table 5, post-emergence (PO)): 100%; Herbicidal action against ECHCG ([10]; Table 5, post-emergence (PO)): 90%; Herbicidal action against STEME ([2]; Table 5, post-emergence (PO)): 90%; Herbicidal action against ABUTH ([3]; Table 5, post-emergence (PO)): 80%; Herbicidal action against PHBPU [11]: 20%; Herbicidal action against SETVI ([4]; Table 5, post-emergence (PO)): 100%; Herbicidal action against VIOTR [12]: 60%; Herbicidal action against POLCO [13]: 80%
4 | Nc1c(F)c(-c2ccc3ccsc3c2)nc(C(=O)OCc2ccc(F)cc2)c1Cl [Example I-53] |  |  |  |  |  |  |  |  |  | 100 | 70 | Herbicidal action against AMARE ([1]; Table 5, post-emergence (PO)): 100%; Herbicidal action against ECHCG ([10]; Table 5, post-emergence (PO)): 90%; Herbicidal action against STEME ([2]; Table 5, post-emergence (PO)): 100%; Herbicidal action against ABUTH ([3]; Table 5, post-emergence (PO)): 80%; Herbicidal action against PHBPU [11]: 0%; Herbicidal action against SETVI ([4]; Table 5, post-emergence (PO)): 90%; Herbicidal action against VIOTR [12]: 10%; Herbicidal action against POLCO [13]: 80%
5 | Nc1c(F)c(-c2ccc3ccsc3c2)nc(C(=O)OCc2ccc(F)cc2F)c1Cl [Example I-42] | 90 | 80 | 80 | 20 | 30 | 100 | 40 | 0 | 20 |  |  | 
6 | Nc1c(F)c(-c2ccc3occc3c2)nc(C(=O)OCc2c(F)cc(F)cc2F)c1Cl [Example I-52] | 90 | 80 | 80 | 20 | 80 | 80 | 30 | 20 | 40 |  |  | 
7 | Nc1cc(-c2ccc3ccsc3c2)nc(C(=O)OCc2c(F)cc(F)cc2F)c1Cl [Example I-32] |  |  |  |  | 70 | 100 | 80 | 30 | 80 |  |  | Herbicidal action against AMARE ([1]; Table 9, post-emergence (PO)): 100%; Herbicidal action against ABUTH ([3]; Table 9, post-emergence (PO)): 90%
8 | Nc1c(F)c(-c2ccc3occc3c2)nc(C(=O)OCc2ccc(F)cc2)c1Cl [Example I-34] |  |  |  |  |  |  |  |  |  | 100 | 50 | Herbicidal action against AMARE ([1]; Table 5, post-emergence (PO)): 100%; Herbicidal action against ECHCG ([10]; Table 5, post-emergence (PO)): 80%; Herbicidal action against STEME ([2]; Table 5, post-emergence (PO)): 90%; Herbicidal action against ABUTH ([3]; Table 5, post-emergence (PO)): 90%; Herbicidal action against PHBPU [11]: 40%; Herbicidal action against SETVI ([4]; Table 5, post-emergence (PO)): 100%; Herbicidal action against VIOTR [12]: 0%; Herbicidal action against POLCO [13]: 80%
9 | Nc1cc(-c2ccc3ccsc3c2)nc(C(=O)OCc2c(F)c(F)c(F)c(F)c2F)c1Cl [Example I-25] | 100 | 100 | 90 | 100 | 60 | 100 | 70 | 0 | 80 |  |  | 
10 | Nc1c(F)c(-c2ccc3occc3c2)nc(C(=O)OCc2ccc(Cl)cc2)c1Cl [Example I-47] | 90 | 80 | 90 | 70 | 60 | 100 | 70 | 20 | 50 |  |  | 
11 | Nc1c(F)c(-c2ccc3sccc3c2)nc(C(=O)OCc2ccc(Cl)cc2)c1Cl [Example I-65] |  |  |  |  |  |  |  |  |  |  |  | Herbicidal action against AMARE ([1]; Table 5, post-emergence (PO)): 100%; Herbicidal action against ECHCG ([10]; Table 5, post-emergence (PO)): 80%; Herbicidal action against STEME ([2]; Table 5, post-emergence (PO)): 80%; Herbicidal action against ABUTH ([3]; Table 5, post-emergence (PO)): 80%; Herbicidal action against PHBPU [11]: 0%; Herbicidal action against SETVI ([4]; Table 5, post-emergence (PO)): 90%; Herbicidal action against VIOTR [12]: 10%; Herbicidal action against POLCO [13]: 100%
12 | Nc1cc(-c2ccc3ccoc3c2)nc(C(=O)OCc2c(F)c(F)c(F)c(F)c2F)c1Cl [Example I-54] |  |  |  |  |  |  |  |  |  | 80 | 0 | Herbicidal action against AMARE ([1]; Table 7, post-emergence (PO)): 100%; Herbicidal action against AMARE ([1]; Table 8, post-emergence (PO)): 100%; Herbicidal action against ECHCG ([10]; Table 7, post-emergence (PO)): 80%; Herbicidal action against ECHCG ([10]; Table 8, post-emergence (PO)): 80%; Herbicidal action against ABUTH ([3]; Table 7, post-emergence (PO)): 80%; Herbicidal action against ABUTH ([3]; Table 8, post-emergence (PO)): 80%; Herbicidal action against SETVI ([4]; Table 7, post-emergence (PO)): 80%; Herbicidal action against SETVI ([4]; Table 8, post-emergence (PO)): 80%
13 | Nc1cc(-c2ccc3ccsc3c2)nc(C(=O)OCc2cccc(Cl)c2)c1Cl [Example I-50] |  |  |  |  |  |  |  |  |  | 80 | 70 | Herbicidal action against AMARE ([1]; Table 7, post-emergence (PO)): 100%; Herbicidal action against AMARE ([1]; Table 8, post-emergence (PO)): 100%; Herbicidal action against ECHCG ([10]; Table 7, post-emergence (PO)): 90%; Herbicidal action against ECHCG ([10]; Table 8, post-emergence (PO)): 90%; Herbicidal action against ABUTH ([3]; Table 7, post-emergence (PO)): 90%; Herbicidal action against ABUTH ([3]; Table 8, post-emergence (PO)): 90%; Herbicidal action against SETVI ([4]; Table 7, post-emergence (PO)): 40%; Herbicidal action against SETVI ([4]; Table 8, post-emergence (PO)): 40%
14 | COc1c(F)ccc(COC(=O)c2nc(-c3ccc4occc4c3)cc(N)c2Cl)c1F [Example I-17] |  |  |  |  |  |  |  |  |  | 100 | 90 | Herbicidal action against AMARE ([1]; Table 7, post-emergence (PO)): 100%; Herbicidal action against AMARE ([1]; Table 8, post-emergence (PO)): 100%; Herbicidal action against ECHCG ([10]; Table 7, post-emergence (PO)): 90%; Herbicidal action against ECHCG ([10]; Table 8, post-emergence (PO)): 90%; Herbicidal action against ABUTH ([3]; Table 7, post-emergence (PO)): 90%; Herbicidal action against ABUTH ([3]; Table 8, post-emergence (PO)): 90%; Herbicidal action against SETVI ([4]; Table 7, post-emergence (PO)): 100%; Herbicidal action against SETVI ([4]; Table 8, post-emergence (PO)): 100%
15 | Nc1cc(-c2ccc3occc3c2)nc(C(=O)OCc2ccc(Cl)cc2)c1Cl [Example I-31] | 100 | 100 | 100 | 90 | 20 | 90 | 30 | 30 | 50 |  |  | 
16 | Nc1cc(-c2ccc3occc3c2)nc(C(=O)OCc2cccc(C(F)(F)F)c2)c1Cl [Example I-11] | 100 | 100 | 100 | 90 | 80 | 100 | 80 | 20 | 100 |  |  | 
